Test results published in patent publication US10407409B2, “6-(5-hydroxy-1H-pyrazol-1-yl)nicotinamide inhibitors of PHD” (Takeda Pharmaceutical Company Limited, priority 2013, dated 2019).

Tests used:
[1] = target: PHD2 enzyme (residues 181-417) (Homo sapiens (Human), UniProt Q9GZT9); assay: Inhibition of PHD enzyme (LC/MS peptide hydroxylation assay); format: biochemical; conditions: PHD2 (residues 181-417) 5 nM, 60 min pre-incubation, -log(IC50), IC50 molar; for IC50: read-out: PHD Inhibition (pIC50) (converted)
In short: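 PHD2 (5 nM final) preincubated with inhibitor 60 min at RT in 50 mM HEPES, 50 mM KCl, 0.5 mM TCEP, 2 uM FeCl2, 0.1 mg/ml BSA, pH 7.3. Reaction started with biotin-peptide (1 uM), 2-oxoglutarate (2 uM), ascorbate (1 mM), quenched at 60 min; hydroxylated product by LC/MS, reported as pIC50.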

[2] = test system: HIF1a protein in H9c2 rat cardiomyocytes; assay: Cell-based HIF-alpha stabilization assay (inhibition of PHD in cells); conditions: Rattus norvegicus, H9c2, 24 h, 24 hrs compound incubation, HIF1a protein by ELISA, read-out: Inhibition of PHD in cells (pEC50) (converted)
In short: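 Rat H9c2 cardiomyocytes, cultured 24 h, were treated 24 h with an 11-point serial dilution of compound. HIF1a in whole-cell lysates was quantified by ELISA as % of the maximal desferrioxamine response. EC50 came from curve fitting; EC50pos is the concentration reaching 50% of the desferrioxamine maximum.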

Sequence of PHD2 enzyme (residues 181-417) (Q9GZT9 181-417): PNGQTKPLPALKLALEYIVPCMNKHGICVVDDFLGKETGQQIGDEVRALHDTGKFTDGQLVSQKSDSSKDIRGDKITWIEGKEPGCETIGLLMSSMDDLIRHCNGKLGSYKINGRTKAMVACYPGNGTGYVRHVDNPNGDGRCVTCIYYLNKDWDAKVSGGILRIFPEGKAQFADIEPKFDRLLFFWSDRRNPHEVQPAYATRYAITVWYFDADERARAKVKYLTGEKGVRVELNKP

| SMILES | PHD Inhibition (pIC50) [1] | IC50 [1] | EC50 [2] |
| --- | --- | --- | --- |
| COc1cc(C#N)ccc1-c1cnn(-c2ccc(C(=O)NCC3CCOCC3)cn2)c1O [Example 194, 6-(4-(4-cyano-2-methoxyphenyl)-5-hydroxy-1H-pyrazol-1-yl)-N-((tetrahydro-2H-pyran-4-yl)methyl)nicotinamide] | 7.3 |  | 513 nM |
| N#Cc1ccc(-c2cnn(-c3ccc(C(=O)NC4CCN(CCO)CC4)cn3)c2O)cc1 [Example 85, 6-(4-(4-cyanophenyl)-5-hydroxy-1H-pyrazol-1-yl)-N-(1-(2-hydroxyethyl)piperidin-4-yl)nicotinamide] | 6.94 |  | 2240 nM |
| CCN1CCN(C(=O)c2ccc(-n3ncc(-c4ccc(C#N)c(C)c4C)c3O)nc2)CC1 [Example 309, 4-(1-(5-(4-ethylpiperazine-1-carbonyl)pyridin-2-yl)-5-hydroxy-1H-pyrazol-4-yl)-2,3-dimethylbenzonitrile] | 7.97 |  | 2630 nM |
| Cc1cc(C#N)ccc1-c1cnn(-c2ccc(C(=O)N3CCC[C@H](N(C)C)C3)cn2)c1O [Example 376, (S)-4-(1-(5-(3-(dimethylamino)piperidine-1-carbonyl)pyridin-2-yl)-5-hydroxy-1H-pyrazol-4-yl)-3-methylbenzonitrile] | 7.61 |  | 891 nM |
| Cc1cc(C#N)ccc1-c1cnn(-c2ccc(C(=O)N3CCN(C)[C@H](C)C3)cn2)c1O [Example 392, (R)-4-(1-(5-(3,4-dimethylpiperazine-1-carbonyl)pyridin-2-yl)-5-hydroxy-1H-pyrazol-4-yl)-3-methylbenzonitrile] | 8.20 |  | 355 nM |
| Cn1ccc(-c2cnn(-c3ccc(C(=O)NCC4CCOCC4)cn3)c2O)cc1=O [Example 211, 6-(5-hydroxy-4-(1-methyl-2-oxo-1,2-dihydropyridin-4-yl)-1H-pyrazol-1-yl)-N-((tetrahydro-2H-pyran-4-yl)methyl)nicotinamide] | 6.47 |  | 50100 nM |
| C[C@H](NC(=O)c1ccc(-n2ncc(-c3ccc(C#N)cc3)c2O)nc1)C1CCOCC1 [Example 173, (S)-6-(4-(4-cyanophenyl)-5-hydroxy-1H-pyrazol-1-yl)-N-(1-(tetrahydro-2H-pyran-4-yl)ethyl)nicotinamide] | 7.21 |  | 1100 nM |
| Cc1cc(C#N)ccc1-c1cnn(-c2ccc(C(=O)N3CCN(C(C)C)[C@@H](C)C3)cn2)c1O [Example 393, (S)-4-(5-hydroxy-1-(5-(4-isopropyl-3-methylpiperazine-1-carbonyl)pyridin-2-yl)-1H-pyrazol-4-yl)-3-methylbenzonitrile] |  | 13.8 nM | 1450 nM |
| Cc1cc(C#N)ccc1-c1cnn(-c2ccc(C(=O)N(C)CC3CCN(C(C)C)C3)cn2)c1O (stereo not drawn) [Example 362, 6-(4-(4-cyano-2-methylphenyl)-5-hydroxy-1H-pyrazol-1-yl)-N-((1-isopropylpyrrolidin-3-yl)methyl)-N-methylnicotinamide] | 7.80 |  | 525 nM |
| Cc1cc(C#N)ccc1-c1cnn(-c2ccc(C(=O)N3CCN4CCCC4C3)cn2)c1O (racemic) [Example 288, (+/−)-4-(5-hydroxy-1-(5-(octahydropyrrolo[1,2-a]pyrazine-2-carbonyl)pyridin-2-yl)-1H-pyrazol-4-yl)-3-methylbenzonitrile] |  | 3.31 nM | 575 nM |
| Cc1cc(C#N)ccc1-c1cnn(-c2ccc(C(=O)N3CCN(C4CC4)[C@H](C)C3)cn2)c1O [Example 375, (R)-4-(1-(5-(4-cyclopropyl-3-methylpiperazine-1-carbonyl)pyridin-2-yl)-5-hydroxy-1H-pyrazol-4-yl)-3-methylbenzonitrile] | 8.06 |  | 1000 nM |
| N#Cc1ccc(-c2cnn(-c3ccc(C(=O)NC4CCCC4)cn3)c2O)cc1 [Example 151, 6-(4-(4-cyanophenyl)-5-hydroxy-1H-pyrazol-1-yl)-N-cyclopentylnicotinamide] | 7.12 |  | 3630 nM |

The next lines start with results.

| PHD Inhibition (pIC50) [1] | IC50 [1] | SMILES | EC50 [2] |
| --- | --- | --- | --- |
| 7.08 |  | COCC(C)(C)NC(=O)c1ccc(-n2ncc(-c3ccc(C#N)cc3C)c2O)nc1 [Example 65, 6-(4-(4-cyano-2-methylphenyl)-5-hydroxy-1H-pyrazol-1-yl)-N-(1-methoxy-2-methylpropan-2-yl)nicotinamide] | 182 nM |
| 8.2 |  | COCCCNC(=O)c1ccc(-n2ncc(-c3ccc(CC#N)c(F)c3)c2O)nc1 [Example 219, 6-(4-(4-(cyanomethyl)-3-fluorophenyl)-5-hydroxy-1H-pyrazol-1-yl)-N-(3-methoxypropyl)nicotinamide] | 1230 nM |
| 7.62 |  | CO[C@H]1CC[C@H](NC(=O)c2ccc(-n3ncc(-c4ccc(C#N)cc4)c3O)nc2)CC1 [Example 229, 6-(4-(4-cyanophenyl)-5-hydroxy-1H-pyrazol-1-yl)-N-((1r,4r)-4-methoxycyclohexyl)nicotinamide] | 1050 nM |
| 7.1 |  | Cc1cc(-n2ncc(-c3ccc(C#N)cc3)c2O)ncc1C(=O)NCCC1CCCOC1 (stereo not drawn) [Example 279, 6-(4-(4-cyanophenyl)-5-hydroxy-1H-pyrazol-1-yl)-4-methyl-N-(2-(tetrahydro-2H-pyran-3-yl)ethyl)nicotinamide] | 2630 nM |
| 7.99 |  | COCCCNC(=O)c1ccc(-n2ncc(-c3ccc(C#N)c(C)c3)c2O)nc1 [Example 402, 6-(4-(4-cyano-3-methylphenyl)-5-hydroxy-1H-pyrazol-1-yl)-N-(3-methoxypropyl)nicotinamide] | 4370 nM |
| 7.09 |  | COCC(C)(C)NC(=O)c1ccc(-n2ncc(-c3ccc(C#N)cc3)c2O)nc1 [Example 200, 6-(4-(4-cyanophenyl)-5-hydroxy-1H-pyrazol-1-yl)-N-(1-methoxy-2-methylpropan-2-yl)nicotinamide] | 1100 nM |
| 8.75 |  | COCC[C@H](C)NC(=O)c1ccc(-n2ncc(-c3ccc(C#N)cc3)c2O)nc1 [Example 358, (S)-6-(4-(4-cyanophenyl)-5-hydroxy-1H-pyrazol-1-yl)-N-(4-methoxybutan-2-yl)nicotinamide] | 1150 nM |
| 8.3 |  | CCNC(=O)c1ccc(-n2ncc(-c3ccc(C#N)cc3C)c2O)nc1 [Example 108] | 110 nM |
| 7.36 |  | CCCNC(=O)c1ccc(-n2ncc(-c3ccc(C#N)cc3)c2O)nc1 [Example 267, 6-(4-(4-cyanophenyl)-5-hydroxy-1H-pyrazol-1-yl)-N-propylnicotinamide] | 708 nM |
| 7.24 |  | CC(C)OCCNC(=O)c1ccc(-n2ncc(-c3ccc(C#N)cc3)c2O)nc1 [Example 89, 6-(4-(4-cyanophenyl)-5-hydroxy-1H-pyrazol-1-yl)-N-(2-isopropoxyethyl)nicotinamide] | 708 nM |
| 6.98 |  | CN1CCC(CNC(=O)c2ccc(-n3ncc(-c4ccc(C#N)cc4)c3O)nc2)CC1 [Example 271, 6-(4-(4-cyanophenyl)-5-hydroxy-1H-pyrazol-1-yl)-N-((1-methylpiperidin-4-yl)methyl)nicotinamide] | 1550 nM |
| 7.37 |  | N#Cc1ccc(-c2cnn(-c3ccc(C(=O)NCc4ccccc4)cn3)c2O)cc1 [Example 281, N-benzyl-6-(4-(4-cyanophenyl)-5-hydroxy-1H-pyrazol-1-yl)nicotinamide] | 257 nM |
